We go through two compounds from patent US7253139B2, “Surfactant preparations comprising α-hydroxy acids” (Cognis Deutschland GmbH & Co. KG, priority 2001, dated 2007).

Series [1] in a line: Determination of foaming behavior, rotor foam method. In kind it is physicochemical. Conditions: added to anionic surfactant (Texapon NSO). The method, then:
To determine foaming behavior, the foaming kinetics after 30 seconds and the foam potential after 60 s and 180 s were measured by the rotor foam method (DIN 13996 in preparation). The rotor foam tester consists of a heatable, double-walled cylindrical glass vessel with an internal diameter of 17.5 cm. A scale in mm is provided on the cylindrical glass vessel for reading off the foam height and the liquid level. In addition, the glass vessel is provided with a Styropor lid which is used both to cover and to insulate the vessel. The stirrer consists of a special stirring head with a stirrer shaft 28 cm in length and 1 cm in diameter and a JK stirrer with a digital revolution counter. A thermostat, a stopwatch and a thermometer (digital) are also required.
The test solution was prepared with water of a certain hardness (15° dH). 200 ml of the sample preheated to 30±1° C. were slowly poured in at the rim of the glass vessel which was covered with the Styropor lid when the required temperature of 30±1° C. had been reached. The rotor speed was 1300 r.p.m.
The first foam height value was determined after 30 seconds. To this end, the stirrer was switched off for at most 10 seconds. The foam volume was then determined after 60 and 180 seconds.

Series [2] in a line: Determination of surface tension, Wilhelmy plate method (DIN 53914). The note with it: added to anionic surfactant (Texapon NSO). Type of series: physicochemical. As for the experimental part:
Determination of Surface Activity
Surface activity was determined to DIN 53914. To this end, the solution to be tested was tested by the Wilhelmy plate method (plate PT 11) at 21±1° C. The preparations according to the invention are intended to have a surface activity of at least 20 mN/m, preferably at least 25 mN/m and more particularly at least 30 mN/m, based on the active substance content of 5% by weight.
The surface tension of the surfactant solution containing tartaric acid was compared with that of the pure surfactant solution (Texapon® NSO, sodium lauryl ether sulfate; Cognis, Dusseldorf) by conducting measurements at 21±1° C. using the Wilhelmy plate method (plate PT 11) to DIN 53914.

Take `O=C(O)C(O)C(O)C(=O)O` (stereo not shown) [tartaric acid]: in series [1], the “Effect of the addition on the foam behavior of the anionic surfactant” value is listed as “does not significantly affect”. In addition, the “Effect of the addition on the surface activity of the anionic surfactant” value in series [2] is reported as “does not significantly affect”.

On to laureth-4-citrate, for which the “Effect of the addition on the foam behavior of the anionic surfactant” value in series [1] was “does not significantly affect”. In series [2], the “Effect of the addition on the surface activity of the anionic surfactant” value is “does not significantly affect”.
